Measured values from patent publication US20110275576A1, “Carbohydrate-Cyclopamine Conjugates as Anticancer Agents” (Utah State University, priority 2009, published 2011).
Where two headings read alike, the source gives them in different places.

Test system: A549 cells
Assay: MTS assay, proliferation of A549 cells
Type: cell-based, human
Details: for proliferation of A549 cells: statement on Table 1; for IC50: read-out: IC50, anticancer activity against lung cancer
Experimental: Experimental procedure for MTS assay. To determine the efficacy of the compounds to cancer cells, a 3-(4,5-dimethylthiazol-2-yl)-5-(3-carboxymethoxyphenyl)-2-(4- sulfophenyl)-2H-tetrazolium inner salt (MTS) assay was used. A549 cells (ATCC, Manassas, Va.), representing a human lung carcinoma cell line, were plated on flat-bottomed 96-well plates in the presence of various concentrations of each compound. After incubation for up to 48 h at 37° C., the percentage of cell proliferation was determined with the MTS assay (Promega CellTiter 96 Aqueous Assay. Madison, Wis.), following the manufacturer's instruction.

[1] = A549 human lung carcinoma cells, MTS assay, incubation up to 48 h at 37° C.

CC1=C2C[C@H]3[C@@H](CC=C4C[C@@H](O)CC[C@@]43C)[C@@H]2CC[C@]12O[C@@H]1C[C@H](C)CN(Cc3cn([C@@H]4OC(CO)[C@@H](O)C(O)C4O)nn3)[C@H]1[C@H]2C (stereo partly drawn) [Example 3a, N-(1-(β-D-Glucopyranosyl)-1H-1,2,3-triazol-4-yl)methylcyclopamine]
proliferation of A549 cells (A549 cells, MTS assay): reduced the proliferation of A549 cells
IC50 [1]: 144 µM

CC1=C2C[C@H]3[C@@H](CC=C4C[C@@H](O)CC[C@@]43C)[C@@H]2CC[C@]12O[C@@H]1C[C@H](C)CN(Cc3cn([C@@H]4OC(CO)[C@@H](O[C@@H]5OC(CO)[C@H](O)C(O)C5O)C(O)C4O)nn3)[C@H]1[C@H]2C (stereo partly drawn) [Example 3d, N-(1-(4-O-(β-D-Galactopyranosyl)-β-D-glucopyranosyl)-1H-1,2,3-triazol-4-yl)methylcyclopamine]
proliferation of A549 cells (A549 cells, MTS assay): reduced the proliferation of A549 cells
IC50 (Homo sapiens, A549, 48 h): 183 µM

CC1=C2C[C@H]3[C@@H](CC=C4C[C@@H](O)CC[C@@]43C)[C@@H]2CC[C@]12O[C@@H]1C[C@H](C)CN(Cc3cn(C4OC(C)[C@H](O)C(O)[C@@H]4O)nn3)[C@H]1[C@H]2C (stereo partly drawn) [Example 3f, N-(1-(α-L-Rhamnopyranosyl)-1H-1,2,3-triazol-4-yl)methylcyclopamine]
proliferation of A549 cells compared with cyclopamine (A549 cells, MTS assay, comparison with cyclopamine): reduced the proliferation of A549 cells more than cyclopamine
proliferation of A549 cells (A549 cells, MTS assay): reduced the proliferation of A549 cells
IC50 [1]: 33 µM

CC1=C2C[C@H]3[C@@H](CC=C4C[C@@H](O)CC[C@@]43C)[C@@H]2CC[C@]12O[C@@H]1C[C@H](C)CN(Cc3cn([C@@H]4OC(CO)[C@@H](O[C@@H]5OC(CO)[C@@H](O[C@@H]6OC(CO)[C@@H](O)C(O)C6O)C(O)C5O)C(O)C4O)nn3)[C@H]1[C@H]2C (stereo partly shown) [Example 3k]
proliferation of A549 cells (A549 cells, MTS assay): reduced the proliferation of A549 cells
IC50 [1]: 96 µM

CC1=C2C[C@H]3[C@@H](CC=C4C[C@@H](O)CC[C@@]43C)[C@@H]2CC[C@]12O[C@@H]1C[C@H](C)CN[C@H]1[C@H]2C [cyclopamine]
IC50 (Homo sapiens, A549, 48 h): 49 µM
